Earlier results in US20080221033A1, “Monitoring of Cardiac Natriuretic Peptides During Diagnosis, Management, and Treatment of Cardiac Diseases” (Koninklijke Philips Electronics N. V., priority 2005, published 2008).
Read-outs that look alike come from different tables or passages of the source.

Experiments:
[1] = tested on: patients hospitalized with congestive heart failure
[2] = patients hospitalized with congestive heart failure

## brain natriuretic peptide [BNP]
In vivo
  terminal half-life in the bloodstream (in words): a few minutes to a few hours

## nesiritide
[1]; decompensated heart failure, vs nitroprusside, nitroglycerin, dobutamine, milrinone
  effectiveness versus parenteral vasodilators and inotropic agents: more effective
[1]; human, in vivo
  onset of action: 15 min
  tolerability versus parenteral vasodilators and inotropic agents: better tolerated
[1]; [2]
  pulmonary arterial pressure: reduces
  pulmonary capillary wedge pressure: reduces
  right atrial pressure: reduces
  systemic vascular resistance: reduces
[1]; typical cardiac patients
  onset of therapeutic action: about 15 minutes

B1: N-terminal pro-BNP (protein, UniProt P16860 27-102, looked up)
NT-proBNP: HPLGSPGSASDLETSGLQEQRNHLQGKLSELQVEQTSLEPLQESPRPTGVWKSREVATEGIRGHRKMVLYTLRAPR
modifications: NT-proBNP
bloodstream, 'believed to be'
  terminal half-life in the bloodstream (in words): about a month or longer
